Experimental data published in PubChem BioAssay AID1508610 (The Scripps Research Institute Molecular Screening Center, 2020).
Active and inactive are the calls of the source. How the calls were made is not given here.

These compounds were tested against G-protein coupled receptor 151 (Homo sapiens) (UniProt Q8TDV0) (assay: GPR151 activator potency, dose response, cell-based (AID 1508610)). Settings: cell-based GPR151 activation reporter.
Chain of G-protein coupled receptor 151 (Homo sapiens) (Q8TDV0 whole entry, looked up): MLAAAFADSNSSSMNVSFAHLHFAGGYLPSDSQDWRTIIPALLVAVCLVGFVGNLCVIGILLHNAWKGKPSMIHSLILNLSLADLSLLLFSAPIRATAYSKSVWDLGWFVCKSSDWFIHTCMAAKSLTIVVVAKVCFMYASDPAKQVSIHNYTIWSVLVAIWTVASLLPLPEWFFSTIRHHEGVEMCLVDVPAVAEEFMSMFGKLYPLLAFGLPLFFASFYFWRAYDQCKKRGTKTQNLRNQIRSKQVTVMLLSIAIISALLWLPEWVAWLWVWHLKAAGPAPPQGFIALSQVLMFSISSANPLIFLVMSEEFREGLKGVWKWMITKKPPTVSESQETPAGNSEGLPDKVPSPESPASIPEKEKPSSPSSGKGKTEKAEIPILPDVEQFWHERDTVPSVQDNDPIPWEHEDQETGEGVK

Row | Structure (SMILES) | EC50
1 | COc1ccc(-n2nc3c(c2NC(=O)c2c(F)cccc2F)CS(=O)(=O)C3)cc1 | > 31.2 µM (inactive)
2 | CC(c1ccccc1)C1CC(=O)N(Cc2ccccc2)C1=O (stereo unspecified) | > 32.4 µM (inactive)
3 | CCC(C)NC(=O)C1=C(C)C(=O)OC12CCCCC2 (stereo unspecified) | > 28 µM (inactive)
4 | Cc1nc2nc(SCC(=O)N3CCOCC3)nn2c(C)c1Cc1ccccc1 | > 28 µM (inactive)
5 | COc1ccc(-c2ccc(C(N)=O)s2)cc1 | > 28.1 µM (inactive)
6 | C=CCN1C(=O)/C(=C/c2ccc(Cl)cc2)C(=O)NC1=S | > 28 µM (inactive)
7 | CCN(CC)C(=S)SCCC(=O)NC(=O)Nc1ccc(F)cc1 | > 28 µM (inactive)
8 | CN(C)/C=C1/C(=O)N(c2nc3ccccc3s2)N=C1C(F)(F)F | > 38.5 µM (inactive)
9 | COc1ccc(Cl)cc1NC(=O)Nc1cccc([N+](=O)[O-])c1C | > 28 µM (inactive)
10 | O=C(c1ccc(CNS(=O)(=O)c2ccc(Cl)cc2)cc1)N1CCCC1 | > 31.6 µM (inactive)
11 | Nc1cccc(-c2nc3ccc(N)cc3s2)c1 | > 36 µM (inactive)
12 | COc1ccc(-c2cn3cc(C(=O)O)ccc3n2)cc1 | > 29.2 µM (inactive)
13 | COc1ccccc1Cn1c(=S)[nH]c2cc(C(=O)N3CCC(C(N)=O)(N4CCCCC4)CC3)ccc2c1=O | inactive
14 | Fc1ccc(CSc2ncn[nH]2)cc1 | > 50.7 µM (inactive)
15 | O=C(Cn1[nH]c(=O)c2ccccc2c1=O)Nc1cccnc1 | 0.00579 µM
16 | COc1ccc(C(=O)Nc2ccc(-n3nncc3C(C)(C)C)cc2)cc1 | > 31.7 µM (inactive)
17 | COc1ccc(S(=O)(=O)N(C)C)c(Cl)c1Cl | > 28 µM (inactive)
18 | CCCNC(=O)c1ccc2nc(-c3csc4ccccc34)sc2c1 | > 25.7 µM (inactive)
19 | Cc1ccc(/C=N/NC(=O)Cc2cccn2C)s1 | > 28 µM (inactive)
20 | CCOC(=O)c1c(NC(=O)CN2CC(C)OC(C)C2)sc(C)c1C (stereo unspecified) | > 31.3 µM (inactive)
21 | CCNc1nc(OC(C(F)(F)F)C(F)(F)F)nc(N2CCCCC2)n1 | > 28 µM (inactive)
22 | CC(C)C[C@@H]1NC(=O)[C@@H]2C[C@H](NC(=O)Nc3cccc(C(F)(F)F)c3)CN2C1=O | > 28 µM (inactive)
23 | COc1ccccc1N(CC(=O)Nc1ccccc1C(=O)NCC(C)C)S(C)(=O)=O | > 28 µM (inactive)
24 | Cc1sc(NC(=O)c2cc3ccccc3oc2=O)nc1-c1ccc(Br)cc1 | > 18.6 µM (inactive)
25 | CCOC(=O)COc1ccc(/C=C2\C=C(c3ccc(Br)cc3)OC2=O)cc1OC | > 23.6 µM (inactive)
26 | COc1ccc(CCNC(=O)/C=C\C(=O)O)cc1OC | > 28 µM (inactive)

Row | Structure (SMILES) | EC50
27 | COc1ccc2nccnc2c1[N+](=O)[O-] | > 40 µM (inactive)
28 | Cc1nc2c(C(=O)NCc3ccccn3)cnn2c(C)c1Cc1cccc(Cl)c1 | > 29.5 µM (inactive)
29 | N#Cc1ccc(NC(=O)COC(=O)CCC(=O)c2ccc3c(c2)OCCO3)cc1 | > 28.4 µM (inactive)
30 | O=C(Nc1nc(-c2cc3ccccc3o2)cs1)c1cc2ccccc2oc1=O | > 24.7 µM (inactive)
31 | Oc1ccc(Nc2ncnc3ccc(I)cc23)cc1 | > 28 µM (inactive)
32 | CC1(C)Cc2cccc(OCC(=O)NC3=NCCS3)c2O1 | > 29.3 µM (inactive)
33 | O=C1CCCN1CCn1cnc2c(NCCOc3ccccc3)nc(N3CCc4ccccc4C3)nc21 | > 27.9 µM (inactive)
34 | CCCCCCCCCCCCCC/C(C(=O)O)=C(\C)C(=O)O | > 28 µM (inactive)
35 | N#Cc1cccc(C(=O)NC2CCCC2)c1 | > 31.4 µM (inactive)
36 | CC(=O)Oc1ccccc1N1C(=O)c2cccc([N+](=O)[O-])c2C1=O | > 35.6 µM (inactive)
37 | C=CCOc1ccc(C(=O)N(Cc2nc(-c3ccc(OC)c(OC)c3)no2)C(C)C)cc1 | > 28 µM (inactive)
38 | CCC(C)c1ccccc1NC(=S)NC(C)=O (stereo unspecified) | > 28 µM (inactive)
39 | CC(=O)c1cccc(NC(=O)CC2S\C(=N/N=C/C=C/c3ccccc3)NC2=O)c1 (stereo unspecified) | > 28 µM (inactive)
40 | COc1ccc(-c2ccc(C(=O)Nc3ccccc3)s2)cn1 | > 28 µM (inactive)
41 | C/C(=C\c1ccccc1)C(=O)NCCc1ccccc1 | > 28 µM (inactive)
42 | CCOC(=O)c1sc(NC(=O)c2sccc2C)cc1C | > 29 µM (inactive)
43 | CCOc1ccc(-c2n[nH]c(=S)n2-c2ccccc2)cc1 | inactive
44 | CCOc1ccc(NS(=O)(=O)c2ccc3c(c2)n(C)c(=O)n3C)cc1 | > 28 µM (inactive)
45 | COC(=O)c1ccc(Cl)cc1NC(=O)N(C(C)C)C1CCN(C(C)=O)CC1 | > 28 µM (inactive)
46 | Cn1c(N)c(S(=O)(=O)N2CCN(c3ccccc3Cl)CC2)c(=O)n(C)c1=O | > 28.4 µM (inactive)
47 | CCOC(=O)C(=O)N1CCN(c2ccccc2)CC1 | > 28 µM (inactive)
48 | Cn1c(COc2ccc(Cl)cc2)nnc1SCC(=O)NCC(F)(F)F | > 28.4 µM (inactive)
49 | Cc1cc2nc(-c3cccnc3Cl)[nH]c2cc1C | > 26.1 µM (inactive)
50 | Cc1cc2c(cc1C)C(c1cc([N+](=O)[O-])ccc1Cl)CC(=O)N2 (stereo unspecified) | > 33.6 µM (inactive)
51 | CCN(CC(=O)NC1CCCCCC1)S(=O)(=O)c1ccc(C)cc1 | > 28 µM (inactive)
52 | N=C1c2ccccc2CN1CC(=O)c1ccccc1 | > 27.4 µM (inactive)

Row | Structure (SMILES) | EC50
53 | CCN(CC)c1nc(SC)nc(Cl)c1Cc1ccc(OC(C)C)cc1 | > 25.2 µM (inactive)
54 | Cc1ccc(-c2nc(-c3ccccn3)no2)cc1 | > 31.3 µM (inactive)
55 | Cc1ccc2nc(/C(C#N)=C\c3ccccc3OCC#N)[nH]c2c1 | > 28 µM (inactive)
56 | Cc1nc(NC(=O)CSc2ccc(-c3nc4ccccc4[nH]3)cn2)sc1C | > 28 µM (inactive)
57 | O=C(CN1C(=O)C(c2ccccc2)=NC12CCCC2)Nc1ccccc1 | > 28 µM (inactive)
58 | N#Cc1ccsc1NC(=O)/C=C/c1ccccc1 | > 28.6 µM (inactive)
59 | COc1ccc(-c2csc(/C(C#N)=C/Nc3ccc(F)c([N+](=O)[O-])c3)n2)cc1OC | > 27.6 µM (inactive)
60 | COc1ccc2[nH]c(C)c(CCNCc3ccc(OC(F)(F)F)cc3)c2c1 | > 21.6 µM (inactive)
61 | O=C(Cn1c2c(c(-c3ccccc3Cl)cc1=O)CCC2)NC1CCCC1 | > 28 µM (inactive)
62 | C/C=C/C(=O)N(CC)c1ccccc1C | > 28.9 µM (inactive)
63 | c1ccc(-c2ccc(-c3nc(-c4ccccn4)no3)cc2)cc1 | > 24.8 µM (inactive)
64 | Fc1ccc(-c2cnc(N3CCC4(CC3)OCCO4)nc2)cc1 | > 28 µM (inactive)
65 | CCOc1ccc(-n2c(SCC(=O)Nc3ccccc3CC)nc3n[nH]c(C)c3c2=N)cc1 | > 27.1 µM (inactive)
66 | COC(=O)C(NC(=O)c1cccc(Cl)c1)(Nc1ccc(Cl)cn1)C(F)(F)F (stereo unspecified) | > 28 µM (inactive)
67 | COc1cc(OC)cc(C(=O)Nc2ccc3c(c2)OCO3)c1 | > 31.5 µM (inactive)
68 | Cc1cccc(C)c1-n1c(=S)sc2c(=O)n(-c3cccc(Cl)c3)c(SCC#N)nc21 | > 21.8 µM (inactive)
69 | Cc1nc2ccccc2n1CC(=O)N1CCc2c(nc(N3CCCC3)[nH]c2=O)C1 | > 28 µM (inactive)
70 | CCn1c(SCC(=O)c2ccccc2)nnc1C(C)C | > 28 µM (inactive)
71 | CCc1ccccc1NC(=S)N(CCc1ccc(OC)c(OC)c1)Cc1cccnc1 | > 24.3 µM (inactive)
72 | COc1ccc(CCNC(=O)c2sc3nc(C)nc(N4CCCCC4)c3c2C)cc1OC | > 27.6 µM (inactive)
73 | Cc1cnc(C)c(NC2CCCCNC2=O)n1 (stereo unspecified) | > 28 µM (inactive)
74 | O=C(Nc1nc(-c2ccc(I)cc2)cs1)c1ccc(Cl)s1 | > 24.9 µM (inactive)
75 | Cc1ccc(-c2c(Nc3ccc(Cl)cc3)c(=O)c2=O)cc1 | > 28 µM (inactive)
76 | COc1ccc(NC(=O)C2C3CCC(C3=C(C)C)C2C(=O)O)cc1 (stereo unspecified) | > 28 µM (inactive)
77 | CC[C@@H]1NC(=O)[C@H]2CN(C(=O)c3cccc(Cl)c3)CCN2C1=O | > 28 µM (inactive)
78 | Cc1ccc(-c2nc3ccccc3[nH]2)cc1 | > 35.1 µM (inactive)

Row | Structure (SMILES) | EC50
79 | COc1ccc(-c2nc(-c3ccccn3)no2)cc1 | > 35.9 µM (inactive)
80 | COC(=O)c1cc2c(N3CCC(Cc4ccccc4)CC3)ncnc2s1 | > 27.4 µM (inactive)
81 | O=C(O)c1ccc(OCc2ccnc(Cl)c2)cc1 | > 28 µM (inactive)
82 | Cn1c(=O)c2c(SCCC3OCCO3)nc(C3CCCCC3)nc2n(C)c1=O | > 27.6 µM (inactive)
83 | c1ccc2[nH]c(-c3nc4ccccc4o3)nc2c1 | > 28.6 µM (inactive)
84 | Cc1ccccc1-n1c(=O)cc(NCCCn2ccnc2)[nH]c1=O | > 28 µM (inactive)
85 | CCOC(=O)c1c(NC(=O)C(C)C)sc(C(C)=O)c1C | inactive
86 | O=C1[C@H]2[C@H]3[C@H](O)[C@H](O)C/C(=N\OCc4ccccc4)[C@H]3CC[C@H]2C(=O)N1C1CCCCC1 | inactive
87 | COc1cccc(-c2ccc(=O)n(CC(=O)Nc3ccc(Cl)c(C(F)(F)F)c3)n2)c1 | > 28 µM (inactive)
88 | CCn1c(/C=C/C=C2\N(C)c3ccccc3C2(C)C)[n+](Cc2ccccc2)c2ccccc21 | 2.75 µM
89 | COc1cccn2c(C(=O)Nc3ccc(Cl)cc3)c(C(F)(F)F)nc12 | > 28 µM (inactive)
90 | O=C1NC(=O)C(=Cc2cc(Br)ccc2OCc2ccccc2F)C(=O)N1 | > 28 µM (inactive)
91 | O=C(O)CCCN=C1CCc2ccccc2N1 | > 43.2 µM (inactive)
92 | C=CCN1C(=O)CC(C(=O)OC)C12CCN(C1CCN(C(=O)OCC)CC1)CC2 (stereo unspecified) | > 28 µM (inactive)
93 | Cc1ccc(C(=O)CSc2[nH]c(=O)ncc2C)cc1 | > 28.6 µM (inactive)
94 | Cc1ccc(S(=O)(=O)Cn2nnnc2CN2CCN(c3ccccc3F)CC2)cc1 | > 28 µM (inactive)
95 | NC(=O)C1CCN(C(=O)c2ccc3nc(N4CCCCC4)sc3c2)CC1 | > 28 µM (inactive)
96 | CC(C)c1ccc2oc3nc(N)c(C(=O)O)cc3c(=O)c2c1 | > 28 µM (inactive)
97 | COc1cc(C2CC(=O)Nc3cc(C)c(C)cc32)cc(OC)c1OC (stereo unspecified) | > 26.6 µM (inactive)
98 | CNc1nc2c(-c3ccc(Cl)cc3)nnn2c2ccccc12 | > 28 µM (inactive)
99 | COc1ccc(-n2nc3c(c2NC(=O)CCC2CCCC2)CS(=O)(=O)C3)cc1 | > 28.2 µM (inactive)
100 | O=C(COc1ccc(Cl)cc1Cl)Nc1ncn[nH]1 | > 28 µM (inactive)
101 | CC(C)c1ccc(N(CC(=O)NCCSc2ccccc2)S(C)(=O)=O)cc1 | > 28 µM (inactive)
